According to US11407715B2, “Substituted indoline derivatives as dengue viral replication inhibitors” (JANSSEN PHARMACEUTICALS, INC., priority 2017, dated 2022):
Like-named read-outs stand apart in the source and are kept apart here.

What was measured:
DENV-4 strain H241 = assay: Tetravalent RT-qPCR assay, serotype 4; format: cell-based, Dengue virus; conditions: RT-qPCR serotype 4 H241, Vero cells
Method: (§1) The antiviral activity of the compounds of the invention was tested against DENV-1 strain TC974#666 (NCPV), DENV-2 strain 16681, DENV-3 strain H87 (NCPV) and DENV-4 strain H241 (NCPV) in a RT-qPCR assay. Therefore, Vero cells were infected with either DENV-1, or -2, or -3, or -4 in the presence or absence of test compounds. At day 3 post-infection, the cells were lysed and cell lysates were used to prepare cDNA of both a viral target (the 3′UTR of DENV; Table 2) and a cellular reference gene (β-actin, Table 2). Subsequently, a duplex real time PCR was performed on a Lightcycler480 instrument. The generated Cp value is inversely proportional to the amount of RNA expression of these targets. Inhibition of DENV replication by a test compound results in a shift of Cp's for the 3′UTR gene. On the other hand, if a test compound is toxic to the cells, a similar effect on β-actin expression will be observed. The comparative ΔΔCp method is used to calculate ECs50, which is based on the relative gene expression of the target gene (3′UTR) normalized with the cellular housekeeping gene (β-actin). In addition, CC50 values are determined based on the Cp values acquired for the housekeeping gene β-actin.
(§2) The culture medium consisted of minimal essential medium supplemented with 2% of heat-inactivated fetal calf serum, 0.04% gentamycin (50 mg/mL) and 2 mM of L-glutamine. Vero cells, obtained from ECACC, were suspended in culture medium and 75 μL/well was added in 96-well plates (10000 cells/well), which already contain the antiviral compounds. […] In addition, each plate contains wells which are assigned as virus controls (containing cells and virus in the absence of compound) and cell controls (containing cells in the absence of virus and compound). Once the cells were added in the plates, the plates were incubated in a fully humidified incubator (37° C., 5% CO2) until the next day. Dengue viruses serotype-1, 2, 3 and 4 were diluted in order to obtain a Cp of ˜22-24 in the assay. Therefore, 25 μL of virus suspension was added to all the wells containing test compound and to the wells assigned as virus control. In parallel, 25 μL of culture medium was added to the cell controls. Next, the plates were incubated for 3 days in a fully humidified incubator (37° C., 5% CO2). After 3 days, the supernatant was removed from the wells and the cells were washed twice with ice-cold PBS (˜100 μL). The cell pellets within the 96-well plates were stored at −80° C. for at least 1 day. Next, RNA was extracted using the Cells-to-CT™ lysis kit, according to the manufacturer's guideline (Life Technologies). The cell lysates can be stored at −80C or immediately used in the reverse transcription step.
(§3) In preparation of the reverse transcription step, mix A (table 3A) was prepared and 7.57 μL/well was dispensed in a 96-well plate. After addition of 5 μL of the cell lysates, a five minute denaturation step at 75° C. was performed (table 3B). Afterwards, 7.43 μL of mix B was added (table 3C) and the reverse transcription step was initiated (table 3D) to generate cDNA.
(§4) Finally, a RT-qPCR mix was prepared, mix C (table 4A), and 22.02 μL/well was dispensed in 96-well LightCycler qPCR plates to which 3 μL of cDNA was added and the qPCR was performed according to the conditions in table 4B on a LightCycler 480.
(§5) Using the LightCycler software and an in-house LIMS system, dose response curves for each compound were calculated and the half maximal effective concentration (EC50) and the half maximal cytotoxic concentration (CC50) were determined (Tables 5-8).

DENV-1 strain TC974#666 = assay: Tetravalent RT-qPCR assay, serotype 1; format: cell-based, Dengue virus; conditions: RT-qPCR serotype 1 TC974#666, Vero cells
Method: as §1, §2, §3, §4, §5

in vitro [1] = conditions: African green monkey
DENV-2 strain 16681 = assay: Tetravalent RT-qPCR assay, serotype 2; format: cell-based, Dengue virus; conditions: RT-qPCR serotype 2 16681, Vero cells
Method: as §1, §2, §3, §4, §5

DENV-3 strain H87 = assay: Tetravalent RT-qPCR assay, serotype 3; format: cell-based, Dengue virus; conditions: RT-qPCR serotype 3 H87, Vero cells
Method: as §1, §2, §3, §4, §5

DENV-2 16681 strain = assay: microbe, parasite or virus in culture; format: cell-based, Dengue virus; conditions: for EC50: DENV-2 16681 eGFP, Vero cells, MOI 0.5, 3 days; for SI: SI=CC50/EC50, DENV-2 antiviral assay
in vitro [2] = conditions: African green monkey; remark: listed apart in the source
Vero cells [3] = conditions: African green monkey
Vero cells [4] = conditions: African green monkey, 3 days

Row | Structure (SMILES) | EC50 (DENV-4 strain H241; Dengue virus, DENV4, Vero) | EC50 (DENV-1 strain TC974#666; Dengue virus, DENV1, Vero) | CC50 (in vitro [1]) | EC50 (DENV-2 strain 16681; Dengue virus, DENV2, Vero) | EC50 (DENV-3 strain H87; Dengue virus, DENV3, Vero) | EC50 (DENV-2 16681 strain) | SI (DENV-2 16681 strain) | CC50 at 3 days (in vitro [2]) | CC50 (Vero cells [3]) | EC50 (DENV-1 strain TC974#666) | CC50 (Vero cells [4]) | EC50 (DENV-2 strain 16681) | EC50 (DENV-3 strain H87) | EC50 (DENV-4 strain H241)
1 | COc1cc(NC(C(=O)N2CCc3ccc(OC(F)(F)F)cc32)c2ccc(Cl)cc2)cc(OCCC(C)(C)C(=O)O)c1 (single isomer, unassigned) [Compound 2A] | 27 nM | 0.57 nM | 13000 nM | 0.48 nM | 6.1 nM | 0.38 nM | 34500 | > 2500 nM | – | – | – | – | – | –
2 | COc1cc(NC(C(=O)N2CCc3ccc(OC(F)(F)F)cc32)c2ccc(Cl)cc2)cc(OCC(C)CC(=O)O)c1 (single isomer, unassigned) [Compound 4C] | 15 nM | – | – | – | – | 0.11 nM | 121878 | – | 13000 nM | 0.066 nM | > 1000 nM | 0.06 nM | 0.77 nM | –
3 | COc1cc(NC(C(=O)N2CCc3ccc(OC(F)(F)F)cc32)c2ccc(Cl)cc2)cc(OCCCCC(=O)O)c1 (single isomer, unassigned) [Compound 13B] | 15 nM | 0.19 nM | – | 0.12 nM | 1.9 nM | 0.13 nM | 88200 | > 2500 nM | 12000 nM | – | – | – | – | –
4 | COc1cc(NC(C(=O)N2CCc3cc(OC)c(C(F)(F)F)cc32)c2ccc(Cl)cc2)cc(OCCC(C)C(=O)O)c1 (single isomer, unassigned) [Compound 20C] | – | – | – | – | – | 0.17 nM | 59500 | > 1000 nM | 12000 nM | 0.3 nM | > 1000 nM | 0.071 nM | 3.4 nM | 20 nM
5 | COc1cc(NC(C(=O)N2CCc3cc(OC)c(C(F)(F)F)cc32)c2ccc(Cl)cc2)cc(OCCC(C)C(=O)O)c1 (single isomer, unassigned) [Compound 20D] | – | – | – | – | – | 0.23 nM | 53400 | – | 13000 nM | 0.89 nM | > 1000 nM | 0.19 nM | 8.9 nM | 55 nM
6 | COc1cc(NC(C(=O)N2CCc3ccc(OC(F)(F)F)cc32)c2ccc(Cl)cc2)cc(OCC2(F)CC2C(=O)O)c1 (stereo not drawn) [Compound 28BB] | – | – | – | – | – | 0.2 nM | 70600 | – | 12000 nM | 0.11 nM | > 1000 nM | 0.1 nM | 1.2 nM | 18 nM
7 | COc1cc(NC(C(=O)N2CCc3ccc(OC(F)(F)F)cc32)c2ccc(Cl)cc2)cc(OCC2(F)CC2C(=O)O)c1 (stereo not drawn) [Compound 29BB] | – | – | 12000 nM | – | – | 0.069 nM | 124722 | – | – | 0.048 nM | – | 0.025 nM | 0.39 nM | 2.8 nM
8 | COc1cc(NC(C(=O)N2CCc3cc(F)c(OC(F)(F)F)cc32)c2ccc(Cl)cc2)cc(OCC2CC(C(=O)O)C2)c1 (stereo not drawn) [Compound 30A] | 18 nM | – | 13000 nM | 0.076 nM | 1.9 nM | 0.24 nM | 47400 | – | – | 0.094 nM | – | – | – | –
